Source: patent US20230348426A1, “OXOPYRROLIDINE FPR2 AGONISTS” (Bristol-Myers Squibb Company, priority 2020, published 2023)
pEC50: −log10 of the molar value.

Assays:
human FPR2 = human FPR2 (Homo sapiens (Human), UniProt P25090); experiment: FPR2 cyclic adenosine monophosphate (cAMP) assay; type: cell-based; details: CHO cells overexpressing human FPR2; forskolin 5 µM; inhibition of cAMP production; read-out: hFPR2 cAMP2 EC50
Summary of the method: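 CHO cells overexpressing human FPR2 (2,000/well) incubated 30 min at room temperature with compound (0.020 nM–100 µM, 1% DMSO), 5 µM forskolin and 200 µM IBMX.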

human FPR1 = human FPR1 (Homo sapiens (Human), UniProt P21462); experiment: FPR1 cyclic adenosine monophosphate (cAMP) assay; type: cell-based; details: CHO cells overexpressing human FPR1; forskolin 10 µM; inhibition of cAMP production; read-out: hFPR1 cAMP EC50
Chain of human FPR1 (P21462 whole entry): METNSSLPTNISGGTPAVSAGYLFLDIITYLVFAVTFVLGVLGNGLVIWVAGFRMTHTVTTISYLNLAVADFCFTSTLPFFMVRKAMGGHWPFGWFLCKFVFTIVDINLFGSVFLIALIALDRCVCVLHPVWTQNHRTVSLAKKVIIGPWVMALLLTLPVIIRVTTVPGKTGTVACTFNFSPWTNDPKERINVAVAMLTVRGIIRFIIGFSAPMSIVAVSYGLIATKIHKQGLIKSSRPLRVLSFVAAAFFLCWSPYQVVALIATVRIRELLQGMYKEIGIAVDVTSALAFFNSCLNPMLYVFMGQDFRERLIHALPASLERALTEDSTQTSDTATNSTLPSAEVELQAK
Summary of the method: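 CHO cells overexpressing human FPR1 (4,000 cells/well) stimulated with 10 µM forskolin plus 200 µM IBMX in the presence of compound (0.020 nM–100 µM, 1% DMSO), 30 min at room temperature. Intracellular cAMP measured by HTRF. Inhibition of cAMP production fitted to a 4-parameter logistic equation.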

Chain of human FPR2 (P25090 whole entry): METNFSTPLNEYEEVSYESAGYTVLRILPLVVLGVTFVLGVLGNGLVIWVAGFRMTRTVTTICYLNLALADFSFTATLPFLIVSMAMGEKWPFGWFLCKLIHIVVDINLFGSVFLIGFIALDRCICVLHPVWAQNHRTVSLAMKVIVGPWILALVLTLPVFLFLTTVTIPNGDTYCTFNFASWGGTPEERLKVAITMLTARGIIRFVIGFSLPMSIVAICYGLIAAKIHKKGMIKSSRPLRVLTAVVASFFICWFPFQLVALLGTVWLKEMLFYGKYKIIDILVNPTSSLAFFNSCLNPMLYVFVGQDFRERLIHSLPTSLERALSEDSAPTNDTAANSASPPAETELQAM

SMILES	pEC50 (human FPR2)	pEC50 (human FPR1)
COc1cc(F)c([C@H]2[C@H](NC(=O)c3ccc(OC(F)F)cc3)C(=O)N(c3cccc(N4C[C@@H]5C[C@H]4CN5C)n3)[C@H]2C)c(F)c1 [Example 526]	8.96	5.64
COc1cc(F)c([C@H]2[C@H](NC(=O)c3ccc(OC(F)F)cc3)C(=O)N(c3cccc(C4CCNCC4)n3)[C@H]2C)c(F)c1 [Example 528]	9.70	6.22
COc1cc(C2CCNCC2)nc(N2C(=O)[C@@H](NC(=O)c3ccc(OC(F)F)cc3)[C@H](c3c(F)cc(OC)cc3F)[C@@H]2C)c1 [Example 529]	8.17	< 5.30
COc1cc(F)c([C@H]2[C@H](NC(=O)c3ccc(OC(F)F)cc3)C(=O)N(c3cccc(C4CCN(CC(F)F)CC4)n3)[C@H]2C)c(F)c1 [Example 537]	8.00	7.46
COc1cc(C2CCN(C)CC2)nc(N2C(=O)[C@@H](NC(=O)c3ccc(OC(F)F)cc3)[C@H](c3c(F)cc(OC)cc3F)[C@@H]2C)c1 [Example 538]	8.89	5.70
COc1cc(C2CCN(CC(F)(F)F)CC2)nc(N2C(=O)[C@@H](NC(=O)c3ccc(OC(F)F)cc3)[C@H](c3c(F)cc(OC)cc3F)[C@@H]2C)c1 [Example 548]	6.55	< 5.30
COc1cc(F)c([C@@H]2CN(c3nc(C4CCN(CC(F)F)CC4)ccc3F)C(=O)[C@H]2NC(=O)c2ccc(OC(F)F)cc2)c(F)c1 [Example 549]	8.39	7.55
COc1cc(F)c([C@@H]2CN(c3nc(C(F)(F)F)ccc3C#N)C(=O)[C@H]2NC(=O)c2ccc(OC(F)(F)F)cc2)c(F)c1 [Example 551]	8.82	7.11
COc1cc(N2C[C@@H]3C[C@H]2CO3)nc(N2C(=O)[C@@H](NC(=O)c3ccc(OC(F)(F)F)cc3)[C@H](c3c(F)cc(OC)cc3F)[C@@H]2C)c1 [Example 552]	6.89	6.36
COc1cc(F)c([C@H]2[C@H](NC(=O)c3ccc(OC(F)F)cc3)C(=O)N(c3cccc(OCCO)n3)[C@H]2C)c(F)c1 [Example 559]	8.18	6.35
COc1cc(F)c([C@H]2[C@H](NC(=O)c3ccc(OC(F)F)cc3)C(=O)N(c3cccc(N4CC[C@@H](O)C4)n3)[C@H]2C)c(F)c1 [Example 561]	8.37	6.77
COCC(CO)n1ccc(C)c(N2C[C@@H](c3ccc(OC)cc3)[C@H](NC(=O)c3ccc(OC(F)(F)F)cc3)C2=O)c1=O (some centres unmarked) [Example 563]	8.64	8.64
COCC(CO)n1ccc(C)c(N2C[C@@H](c3ccc(OC)cc3)[C@H](NC(=O)c3ccc(OC(F)(F)F)cc3)C2=O)c1=O (some centres unmarked) [Example 564]	8.44	9.30
COc1cc(C2CCN(C)CC2)nc(N2C(=O)[C@@H](NC(=O)c3ccc(OC(F)(F)F)cc3)[C@H](c3c(F)cc(OC)cc3F)[C@@H]2C)c1 [Example 565]	8.09	6.14
COc1cc(F)c([C@@H]2CN(c3cccc(N4CCN(C)CC4)n3)C(=O)[C@H]2NC(=O)c2ccc(OC(F)F)cc2)c(F)c1 [Example 566]	8.96	6.00
COc1cc(F)c([C@@H]2CN(c3cccc(N4CCN(S(C)(=O)=O)CC4)n3)C(=O)[C@H]2NC(=O)c2ccc(OC(F)F)cc2)c(F)c1 [Example 567]	8.02	< 5.30

Continued, values first:

pEC50 (human FPR2)	pEC50 (human FPR1)	SMILES
8.85	6.38	COc1cc(F)c([C@@H]2CN(c3cccc(C4CCN(C)CC4)n3)C(=O)[C@H]2NC(=O)c2ccc(OC(F)F)cc2)c(F)c1 [Example 525]
8.89	6.11	COc1cc(F)c([C@@H]2CN(c3cccc(C4CCN(CCO)CC4)n3)C(=O)[C@H]2NC(=O)c2ccc(OC(F)F)cc2)c(F)c1 [Example 527]
8.51	6.17	COc1cc(F)c([C@@H]2CN(c3c(C)ccn(C4CCNC4)c3=O)C(=O)[C@H]2NC(=O)c2ccc(Cl)cc2)c(F)c1 (some centres unmarked) [Example 530]
8.80	5.49	COc1cc(F)c([C@@H]2CN(c3cccc(N4C[C@@H]5C[C@H]4CN5C)n3)C(=O)[C@H]2NC(=O)c2ccc(OC(F)F)cc2)c(F)c1 [Example 531]
8.64	6.20	COc1cc(F)c([C@@H]2CN(c3ncn(CC(C)C)n3)C(=O)[C@H]2NC(=O)c2ccc(Cl)cc2)c(F)c1 [Example 532]
8.40	6.05	COc1cc(F)c([C@@H]2CN(c3c(C)ncn(CC(F)F)c3=O)C(=O)[C@H]2NC(=O)c2ccc(Cl)cc2)c(F)c1 [Example 533]
8.47	< 5.30	COc1cc(C2CCNCC2)nc(N2C[C@@H](c3c(F)cc(OC)cc3F)[C@H](NC(=O)c3ccc(OC(F)F)cc3)C2=O)c1 [Example 534]
9.00	6.70	COc1cc(F)c([C@@H]2CN(c3nc(OCC4CCOC4)ccc3F)C(=O)[C@H]2NC(=O)c2ccc(OC(F)F)cc2)c(F)c1 (some centres unmarked) [Example 535]
8.68	6.19	COc1cc(F)c([C@@H]2CN(c3cccc(C4CCN(C)CC4)n3)C(=O)[C@H]2NC(=O)c2ccc(OC(F)F)cc2)c(F)c1 [Example 536]
8.17	6.33	COc1cc(C2CCOCC2)nc(N2C(=O)[C@@H](NC(=O)c3ccc(OC(F)F)cc3)[C@H](c3c(F)cc(OC)cc3F)[C@H]2C)c1 [Example 539]
7.70	6.09	COc1cc(F)c([C@@H]2CN(c3ncn(CC(F)F)n3)C(=O)[C@H]2NC(=O)c2ccc(Cl)cc2)c(F)c1 [Example 541]
8.24	5.92	COc1cc(F)c([C@@H]2CN(c3cncn(C4CCOCC4)c3=O)C(=O)[C@H]2NC(=O)c2ccc(Cl)cc2)c(F)c1 [Example 542]
8.16	5.72	COc1cc(F)c([C@@H]2CN(c3cncnc3OC3CCOCC3)C(=O)[C@H]2NC(=O)c2ccc(Cl)cc2)c(F)c1 [Example 543]
8.22	6.48	COc1cc(F)c([C@H]2[C@H](NC(=O)c3ccc(Cl)cc3)C(=O)N(c3cccc(N4CC[C@@H](O)C4)n3)[C@@H]2C)c(F)c1 [Example 545]
8.68	5.74	COc1cc(F)c([C@@H]2CN(c3nccn(C4CC4)c3=O)C(=O)[C@H]2NC(=O)c2ccc(Cl)cc2)c(F)c1 [Example 546]
8.35	5.62	COc1cc(F)c([C@@H]2CN(c3cncn(CC4CCOCC4)c3=O)C(=O)[C@H]2NC(=O)c2ccc(Cl)cc2)c(F)c1 [Example 547]
8.00	8.46	COc1cc(F)c([C@@H]2CN(c3nc(C4CCN(CC(F)(F)F)CC4)ccc3F)C(=O)[C@H]2NC(=O)c2ccc(OC(F)F)cc2)c(F)c1 [Example 550]
8.37	5.62	COc1cc(F)c([C@H]2[C@H](NC(=O)c3ccc(Cl)cc3)C(=O)N(c3nccn(CC(F)F)c3=O)[C@@H]2C)c(F)c1 [Example 554]
7.51	6.28	COc1cc(F)c([C@H]2[C@H](NC(=O)c3ccc(OC(F)F)cc3)C(=O)N(c3cncn(CC(F)F)c3=O)[C@H]2C)c(F)c1 [Example 555]
8.66	5.70	COc1cc(F)c([C@@H]2CN(c3nc(C4CCN(C)CC4)ccc3F)C(=O)[C@H]2NC(=O)c2ccc(OC(F)F)cc2)c(F)c1 [Example 556]
9.10	6.92	COc1cc(F)c([C@H]2[C@H](NC(=O)c3ccc(Cl)cc3)C(=O)N(c3nccn(CC(F)F)c3=O)[C@H]2C)c(F)c1 [Example 560]
